# From patent US20190071416A1, “COMPOUNDS FOR TREATMENT OF CANCER AND EPIGENETICS” (Agency For Science, Technology and Research, priority 2015, published 2019)
# Molecular target: T1, SMYD3 (Homo sapiens, UniProt Q9H7B4)
# T1 sequence (Q9H7B4 1-428): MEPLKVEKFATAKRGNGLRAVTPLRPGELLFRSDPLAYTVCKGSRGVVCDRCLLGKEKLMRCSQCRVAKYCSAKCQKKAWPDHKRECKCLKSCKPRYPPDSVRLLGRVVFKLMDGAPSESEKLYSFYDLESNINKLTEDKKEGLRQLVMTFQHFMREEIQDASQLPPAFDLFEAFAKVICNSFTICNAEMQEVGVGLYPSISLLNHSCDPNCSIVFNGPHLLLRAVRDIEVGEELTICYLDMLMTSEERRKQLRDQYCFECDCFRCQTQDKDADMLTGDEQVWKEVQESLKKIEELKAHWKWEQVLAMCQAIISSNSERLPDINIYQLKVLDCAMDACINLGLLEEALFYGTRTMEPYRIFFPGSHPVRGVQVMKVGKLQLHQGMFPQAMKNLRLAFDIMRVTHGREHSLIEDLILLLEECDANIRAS
# Experiment: SMYD3 biochemical assay (MTase-Glo, MAP3K2 peptide substrate)
# Conditions: Table 3; MTase assay, MAP3K2 peptide substrate; read-out: IC50
# Procedure, shortened: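 Luminescent readout of SAH production (coupled SAH→ATP conversion, MTase-Glo) after SMYD3 reacted 30 min at room temperature with 1.0 µM SAM and 10 µM MAP3K2 peptide, both final. Non-linear regression gave IC50 values.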
row,SMILES,IC50 [nM]
1,"CCCOC(=O)N1CCN(C(=O)c2ccc3c(Cl)cc(-c4ccc5nc(C)oc5c4)nc3c2)CC1 [B212, Propyl 4-(4-chloro-2-(2-methylbenzo[d]oxazol-6-yl)quinoline-7-carbonyl)piperazine-1-carboxylate]",240
2,"CCCOC(=O)N1CCN(C(=O)c2ccc3c(Cl)cc(-c4ccc5ocnc5c4)nc3c2)CC1 [B213, Propyl 4-(2-(benzo[d]oxazol-5-yl)-4-chloroquinoline-7-carbonyl)piperazine-1-carboxylate]",330
3,"CCCOC(=O)N1CCN(C(=O)c2ccc3c(Cl)cc(-c4cnn(C)c4)nc3c2)C[C@H]1C [B215, Propyl (R)-4-(4-chloro-2-(1-methyl-1H-pyrazol-4-yl)quinoline-7-carbonyl)-2-methylpiperazine-1-carboxylate]",110
4,"CCCOC(=O)N1CCN(C(=O)c2ccc3c(Cl)cc(-c4ccc(C(=O)NC)c(F)c4)nc3c2)C[C@H]1C [B216, Propyl (R)-4-(4-chloro-2-(3-fluoro-4-(methylcarbamoyl)phenyl)quinoline-7-carbonyl)-2-methylpiperazine-1-carboxylate]",230
5,"CCCOC(=O)N1CCN(C(=O)c2ccc3c(Cl)cc(-c4ccc(O)c(C)c4)nc3c2)C[C@H]1C [B218, Propyl (R)-4-(4-chloro-2-(4-hydroxy-3-methylphenyl)quinoline-7-carbonyl)-2-methylpiperazine-1-carboxylate]",220
6,"CCCOC(=O)N1CCN(C(=O)c2ccc3c(Cl)cc(-c4cnn(C)c4)nc3c2)[C@@H](C)C1 [B219, Propyl (S)-4-(4-chloro-2-(1-methyl-1H-pyrazol-4-yl)quinoline-7-carbonyl)-3-methylpiperazine-1-carboxylate]",230
7,"CCCOC(=O)N1CCN(C(=O)c2ccc3c(Cl)cc(-c4ccc(COCCOC)cc4)nc3c2)CC1 [B224, Propyl 4-(4-chloro-2-(4-((2-methoxyethoxy)methyl)phenyl)quinoline-7-carbonyl)piperazine-1-carboxylate]",800
8,"CCCOC(=O)N1CCN(C(=O)c2ccc3c(Cl)cc(-c4ccc(O)c(C)c4)nc3c2)[C@@H](C)C1 [B225, Propyl (S)-4-(4-chloro-2-(4-hydroxy-3-methylphenyl)quinoline-7-carbonyl)-3-methylpiperazine-1-carboxylate]",230
9,"CCCCC(=O)N1CCN(C(=O)c2ccc3c(Cl)ccnc3c2)CC1 [B226, 1-(4-(4-chloroquinoline-7-carbonyl)piperazin-1-yl)pentan-1-one]",7900
10,"CCCOC(=O)N1CCN(C(=O)c2ccc3c(Cl)cc(-c4cc(C)n(C)c4CN)nc3c2)CC1 [B227, Propyl 4-(2-(2-(aminomethyl)-1,5-dimethyl-1H-pyrrol-3-yl)-4-chloroquinoline-7-carbonyl)piperazine-1-carboxylate]",770
11,"CCCOC(=O)N1CCN(C(=O)c2ccc3c(Cl)cc(-c4ccn(C(=O)OC)c4)nc3c2)CC1 [B228, Propyl 4-(4-chloro-2-(1-(methoxycarbonyl)-1H-pyrrol-3-yl)quinoline-7-carbonyl)piperazine-1-carboxylate]",300
12,"CCCOC(=O)N1CCN(C(=O)c2ccc3c(Cl)cc(-c4cnn(C(C)C)c4)nc3c2)CC1 [B229, Propyl 4-(4-chloro-2-(1-isopropyl-1H-pyrazol-4-yl)quinoline-7-carbonyl)piperazine-1-carboxylate]",1100
13,"CCCOC(=O)N1CCN(C(=O)c2ccc3c(Cl)cc(-c4ccn(S(=O)(=O)N(C)C)c4)nc3c2)CC1 [B231, Propyl 4-(4-chloro-2-(1-(N,N-dimethylsulfamoyl)-1H-pyrrol-3-yl)quinoline-7-carbonyl)piperazine-1-carboxylate]",630
14,"CCCOC(=O)N1CCN(C(=O)c2ccc3c(Cl)cc(-c4ccc5c(c4)CNC5=O)nc3c2)CC1 [B232, Propyl 4-(4-chloro-2-(1-oxoisoindolin-5-yl)quinoline-7-carbonyl)piperazine-1-carboxylate]",150
15,"CNC(=O)c1ccc(-c2cc(Cl)c3ccc(C(=O)N4CCN(C(=O)OCCCF)[C@H](C)C4)cc3n2)cc1 [B233, 3-Fluoropropyl (R)-4-(4-chloro-2-(4-(methylcarbamoyl)phenyl)quinoline-7-carbonyl)-2-methylpiperazine-1-carboxylate]",160
16,"C[C@@H]1CN(C(=O)c2ccc3c(Cl)cc(-c4ccn(C)c4)nc3c2)CCN1C(=O)OCCCF [B234, 3-Fluoropropyl (R)-4-(4-chloro-2-(1-methyl-1H-pyrrol-3-yl)quinoline-7-carbonyl)-2-methylpiperazine-1-carboxylate]",98
17,"C[C@@H]1CN(C(=O)c2ccc3c(Cl)cc(-c4cc(F)c(O)c(F)c4)nc3c2)CCN1C(=O)OCCCF [B235, 3-Fluoropropyl (R)-4-(4-chloro-2-(3,5-difluoro-4-hydroxyphenyl)quinoline-7-carbonyl)-2-methylpiperazine-1-carboxylate]",230
18,"CCCOC(=O)N1CCN(C(=O)c2ccc3c(Cl)cc(-c4ccc(C(=O)NC)c(C)c4)nc3c2)CC1 [B236, Propyl 4-(4-chloro-2-(3-methyl-4-(methylcarbamoyl)phenyl)quinoline-7-carbonyl)piperazine-1-carboxylate]",360
19,"CCCOC(=O)N1CCN(C(=O)c2ccc3c(Cl)cc(-c4ccc5oc(C)nc5c4)nc3c2)CC1 [B237, Propyl 4-(4-chloro-2-(2-methylbenzo[d]oxazol-5-yl)quinoline-7-carbonyl)piperazine-1-carboxylate]",200
20,"CCCOC(=O)N1CCN(C(=O)c2ccc3c(Cl)cc(-c4ccc(N5CCCC5)c(F)c4)nc3c2)CC1 [B238, Propyl 4-(4-chloro-2-(3-fluoro-4-(pyrrolidin-1-yl)phenyl)quinoline-7-carbonyl)piperazine-1-carboxylate]",3500
21,"CCCOC(=O)N1CCN(C(=O)c2ccc3c(Cl)cc(-c4ccc(C(=O)NC)c(F)c4)nc3c2)[C@@H](C)C1 [B240, Propyl (S)-4-(4-chloro-2-(3-fluoro-4-(methylcarbamoyl)phenyl)quinoline-7-carbonyl)-3-methylpiperazine-1-carboxylate]",250
22,"CCCOC(=O)N1CCN(C(=O)c2ccc3c(Cl)cc(-c4ccc5ocnc5c4)nc3c2)[C@@H](C)C1 [B241, Propyl (S)-4-(2-(benzo[d]oxazol-5-yl)-4-chloroquinoline-7-carbonyl)-3-methylpiperazine-1-carboxylate]",240
23,"CCCOC(=O)N1CCN(C(=O)c2ccc3c(Cl)cc(-c4ccc(COCC5CC5)cc4)nc3c2)CC1 [B242, Propyl 4-(4-chloro-2-(4-((cyclopropylmethoxy)methyl)phenyl)quinoline-7-carbonyl)piperazine-1-carboxylate]",670

# The remaining molecules from weak to strong by IC50, led by results:
row,IC50 [nM],SMILES
1,1300,"CCCOC(=O)N1CCN(C(=O)c2ccc3c(Cl)cc(-c4ccc(C(C)OCC)cc4)nc3c2)CC1 (stereo not drawn) [B239, Propyl 4-(4-chloro-2-(4-(1-ethoxyethyl)phenyl)quinoline-7-carbonyl)piperazine-1-carboxylate]"
2,1010,"CCCOC(=O)N1CCN(C(=O)c2ccc3c(Cl)cc(-c4ccc5[nH]cc(C)c5c4)nc3c2)CC1 [B211, Propyl 4-(4-chloro-2-(3-methyl-1H-indol-5-yl)quinoline-7-carbonyl)piperazine-1-carboxylate]"
3,800,"CCCOC(=O)N1CCN(C(=O)c2ccc3c(Cl)cc(-c4ccnc5[nH]ccc45)nc3c2)CC1 [B221, Propyl 4-(4-chloro-2-(1H-pyrrolo[2,3-b]pyridin-4-yl)quinoline-7-carbonyl)piperazine-1-carboxylate]"
4,700,"CCCOC(=O)N1CCN(C(=O)c2ccc3c(Cl)cc(-c4cnn(C(F)F)c4)nc3c2)CC1 [B230, Propyl 4-(4-chloro-2-(1-(difluoromethyl)-1H-pyrazol-4-yl)quinoline-7-carbonyl)piperazine-1-carboxylate]"
5,350,"CCCOC(=O)N1CCN(C(=O)c2ccc3c(Cl)cc(-c4cc(F)c(O)c(F)c4)nc3c2)[C@@H](C)C1 [B220, Propyl (S)-4-(4-chloro-2-(3,5-difluoro-4-hydroxyphenyl)quinoline-7-carbonyl)-3-methylpiperazine-1-carboxylate]"
6,130,"CCCOC(=O)N1CCN(C(=O)c2ccc3c(Cl)cc(-c4cc(F)c(O)c(F)c4)nc3c2)C[C@H]1C [B217, Propyl (R)-4-(4-chloro-2-(3,5-difluoro-4-hydroxyphenyl)quinoline-7-carbonyl)-2-methylpiperazine-1-carboxylate]"
7,120,"CCCOC(=O)N1CCN(C(=O)c2ccc3c(Cl)cc(-c4cc(C)n(C)c4C)nc3c2)CC1 [B214, Propyl 4-(4-chloro-2-(1,2,5-trimethyl-1H-pyrrol-3-yl)quinoline-7-carbonyl)piperazine-1-carboxylate]"
8,63,"CCCOC(=O)N1CCN(C(=O)c2ccc3c(Cl)cc(-c4ccc5ocnc5c4)nc3c2)C[C@H]1C [B243, Propyl (R)-4-(2-(benzo[d]oxazol-5-yl)-4-chloroquinoline-7-carbonyl)-2-methylpiperazine-1-carboxylate]"
9,46,"CCCOC(=O)N1CCN(C(=O)c2ccc3c(Cl)cc(-c4ccc5[nH]c(C)nc5c4)nc3c2)CC1 [B222, Propyl 4-(4-chloro-2-(2-methyl-1H-benzo[d]imidazol-5-yl)quinoline-7-carbonyl)piperazine-1-carboxylate]"
10,26,"CCCOC(=O)N1CCN(C(=O)c2ccc3c(Cl)cc(-c4ccc(C(=O)NC5CC5)cc4)nc3c2)CC1 [B210, Propyl 4-(4-chloro-2-(4-(cyclopropylcarbamoyl)phenyl)quinoline-7-carbonyl)piperazine-1-carboxylate]"
